Test results reported in patent US9856304B2, “Peptide and application thereof” (Saitama Medical University, priority 2013, dated 2018).

System: human iPS cells (253G1 cells)
Test: Differentiation induction of human iPS cells into pancreatic hormone-producing cells (2), quantitative RT-PCR
Assay type: cell-based
Conditions: 1 nM betagenin in steps (A2) to (D2), vs ACN control, GAPDH corrected
Description: As human iPS cells, used were 253G1 cells purchased from the cell bank at RIKEN. The cells were cultured/maintained in an ES cell culture medium (DMEM/ham F12, 20% KSR, nonessential amino acid, 2 mM L-glutamine, 0.1 mM 2-mercaptoethanol, 5.2 mM NaOH) with added 4 ng/mL FGF-2 (Global Stem) and penicillin/streptomycin (Nacalai Tesque, Inc.) along with SNL76/7 cells (DS Pharma Biomedical) treated with mitomycin-C. CTK (0.25% trypsin, 1 mg/mL Collagenase IV, 20% KSR, 1 mM CaCl2 in PBS) was used for cell detachment, and diluted at a ratio of 1:3 to 1:4 to perform passage culture.
The cells were detached with trypsin-EDTA 3 days before the start of differentiation induction, and plated at a cell density of 6.3×10^4 cells/cm2, and cultured for 1 day in an ES cell culture medium with added 10 μM Y-27632 (Wako), 4 ng/mL FGF-2 and penicillin/streptomycin along with STO cells treated with mitomycin-C. Subsequently, they were further cultured for 2 days in an ES cell culture medium with added 4 ng/mL FGF-2 and penicillin/streptomycin.
On the first day of the start of differentiation induction, the culture medium was replaced with a RPMI1640 culture medium (Nacalai Tesque, Inc.) with added 2% (v/v) FBS, 100 ng/mL activin A (SBI), 3 μM CHIR99021 (Axon Medchem) and 1 nM betagenin, and cultured for 1 day (Step (A2)). […]
The gene expressions of insulin, glucagon, somatostatin were confirmed by quantitative RT-PCR for cells (n=3 for each of the betagenin addition group and the control group) obtained from 253G1 cells via the above steps (A2) to (D2). Specifically, total RNA was first extracted from the cells using a SV Total RNA Isolation System (Promega), and reverse transcription reactions were performed with BioScript™ transcriptase (Bioline), and then quantitative PCR analysis was performed with LightCycler™ (Roche) using SYBR™ Green PCR Master Mix (Applied Biosystems). Note that the gene expression of GAPDH was determined by quantitative RT-PCR as an internal control. […]

betagenin: chemically synthesized peptide of SEQ ID NO: 1, fragment of human TM4SF20 from Position 170 to Position 229 (WRASSFHFDSEENKHRLIHFSVFLGLLLVGILEVLFGLSQIVIGFLGCLCGVSKRRSQIV; Peptide Sequence betagenin; listed as Homo sapiens)
increased: amount of expression of insulin (relative) (first day taken as 1, FIG. 6) | amount of expression of glucagon (relative) (first day taken as 1, FIG. 7) | amount of expression of somatostatin (relative) (first day taken as 1, FIG. 8)
